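Five compound concentrations were applied to cells in 96-well plates for 48 hours; endpoints were derived by simple linear interpolation of the resulting dose-response curve. GI50: concentration for 50% inhibition of growth.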 Calls of active or inactive are those of the source. No stated cut-off is given here; in the data, active = GI50 up to about 1.1 µM and inactive = higher.
Key:
Assay in all cases: growth of human tumour cells (NCI), 48 h
DLD-1 = tested on: DLD-1
HCC 2998 = tested on: HCC 2998
HCT-116 = tested on: HCT-116
LOX IMVI = tested on: LOX IMVI
NCI-H23 = tested on: NCI-H23
NCI-H460 = tested on: NCI-H460
NCI-H522 = tested on: NCI-H522
OVCAR-3 = tested on: OVCAR-3
OVCAR-5 = tested on: OVCAR-5
OVCAR-8 = tested on: OVCAR-8
RPMI-8226 = tested on: RPMI-8226
SF-295 = tested on: SF-295
SF-539 = tested on: SF-539
SK-OV-3 = tested on: SK-OV-3
SN12C = tested on: SN12C
SNB-75 = tested on: SNB-75
SW-620 = tested on: SW-620
UACC-257 = tested on: UACC-257
UO-31 = tested on: UO-31
SK-MEL-28 = tested on: SK-MEL-28

Structure (SMILES): O=C(O)c1cc2c3c(c1)[C@H]1C=CC[C@H]1CN3CC1CC=CC21 (stereo partly specified)
- GI50 (DLD-1): > 100 µM (inactive)
- GI50 (HCC 2998): > 100 µM (inactive)
- GI50 (HCT-116): > 100 µM (inactive)
- GI50 (LOX IMVI): > 100 µM (inactive)
- GI50 (NCI-H23): > 100 µM (inactive)
- GI50 (NCI-H460): > 100 µM (inactive)
- GI50 (NCI-H522): > 100 µM (inactive)
- GI50 (OVCAR-3): > 100 µM (inactive)
- GI50 (OVCAR-5): > 100 µM (inactive)
- GI50 (OVCAR-8): > 100 µM (inactive)
- GI50 (RPMI-8226): > 100 µM (inactive)
- GI50 (SF-295): > 100 µM (inactive)
- GI50 (SF-539): > 100 µM (inactive)
- GI50 (SK-OV-3): > 100 µM (inactive)
- GI50 (SN12C): > 100 µM (inactive)
- GI50 (SNB-75): > 100 µM (inactive)
- GI50 (SW-620): > 100 µM (inactive)
- GI50 (UACC-257): > 100 µM (inactive)
- GI50 (UO-31): > 100 µM (inactive)

Structure (SMILES): CCCCCCCCCCC(C)CCCCCCC(=O)O (stereo unspecified)
- GI50 (DLD-1): > 100 µM (inactive)
- GI50 (HCC 2998): > 100 µM (inactive)
- GI50 (HCT-116): > 100 µM (inactive)
- GI50 (LOX IMVI): > 100 µM (inactive)
- GI50 (NCI-H23): > 100 µM (inactive)
- GI50 (NCI-H460): > 100 µM (inactive)
- GI50 (NCI-H522): > 100 µM (inactive)
- GI50 (OVCAR-3): > 100 µM (inactive)
- GI50 (OVCAR-5): > 100 µM (inactive)
- GI50 (OVCAR-8): > 100 µM (inactive)
- GI50 (RPMI-8226): > 100 µM (inactive)
- GI50 (SF-295): > 100 µM (inactive)
- GI50 (SF-539): > 100 µM (inactive)
- GI50 (SK-MEL-28): > 100 µM (inactive)
- GI50 (SK-OV-3): > 100 µM (inactive)
- GI50 (SN12C): > 100 µM (inactive)
- GI50 (SNB-75): > 100 µM (inactive)
- GI50 (SW-620): > 100 µM (inactive)
- GI50 (UACC-257): > 100 µM (inactive)
- GI50 (UO-31): > 100 µM (inactive)

Structure (SMILES): COc1ccc(C23C(=O)c4ccccc4N2O[C@H]2C(=O)N(c4ccccc4)C(=O)[C@H]23)cc1 (stereo partly specified)
- GI50 (DLD-1): > 100 µM (inactive)
- GI50 (HCC 2998): > 100 µM (inactive)
- GI50 (HCT-116): > 100 µM (inactive)
- GI50 (LOX IMVI): > 100 µM (inactive)
- GI50 (NCI-H23): > 100 µM (inactive)
- GI50 (NCI-H460): > 100 µM (inactive)
- GI50 (NCI-H522): 14 µM (inactive)
- GI50 (OVCAR-3): > 100 µM (inactive)
- GI50 (OVCAR-5): > 100 µM (inactive)
- GI50 (OVCAR-8): > 100 µM (inactive)
- GI50 (RPMI-8226): > 100 µM (inactive)
- GI50 (SF-295): > 100 µM (inactive)
- GI50 (SF-539): > 100 µM (inactive)
- GI50 (SK-MEL-28): > 100 µM (inactive)
- GI50 (SK-OV-3): > 100 µM (inactive)
- GI50 (SN12C): > 100 µM (inactive)
- GI50 (SNB-75): > 100 µM (inactive)
- GI50 (SW-620): > 100 µM (inactive)
- GI50 (UACC-257): > 100 µM (inactive)
- GI50 (UO-31): > 100 µM (inactive)

Structure (SMILES): CCCCCC1CC(C(C)=O)CN1c1ccc(F)cc1 (stereo unspecified)
- GI50 (DLD-1): 32 µM (inactive)
- GI50 (HCC 2998): 38.1 µM (inactive)
- GI50 (HCT-116): 27.1 µM (inactive)
- GI50 (LOX IMVI): 28 µM (inactive)
- GI50 (NCI-H23): 24.8 µM (inactive)
- GI50 (NCI-H460): 44.4 µM (inactive)
- GI50 (NCI-H522): 21.2 µM (inactive)
- GI50 (OVCAR-3): 28.1 µM (inactive)
- GI50 (OVCAR-5): > 100 µM (inactive)
- GI50 (OVCAR-8): 32.3 µM (inactive)
- GI50 (SF-295): 21.2 µM (inactive)
- GI50 (SF-539): > 100 µM (inactive)
- GI50 (SK-MEL-28): 54.5 µM (inactive)
- GI50 (SN12C): 48.5 µM (inactive)
- GI50 (SNB-75): 25.5 µM (inactive)
- GI50 (SW-620): 29.7 µM (inactive)
- GI50 (UACC-257): 30.5 µM (inactive)
- GI50 (UO-31): 37.4 µM (inactive)

Structure (SMILES): CC1C(O)C2(Oc3cc4c(c5c3[C@@H](CC5O)[C@H]2C)CCC2Cc3nc5c(nc3C[C@@]42C)CC2CCC3C4=C[C@H]6O[C@@]7(O[C@@](C)(CO)C[C@@H]7O)C(C)[C@@]6(O)[C@]4(C)[C@@H](O)CC3[C@]2(C)C5)OC1(C)C (stereo partly specified)
- GI50 (DLD-1): 1.1 µM (active)
- GI50 (HCC 2998): 0.536 µM (active)
- GI50 (HCT-116): 0.12 µM (active)
- GI50 (LOX IMVI): 0.115 µM (active)
- GI50 (NCI-H23): 0.114 µM (active)
- GI50 (NCI-H460): 0.0735 µM (active)
- GI50 (NCI-H522): 0.123 µM (active)
- GI50 (OVCAR-3): 0.0891 µM (active)
- GI50 (OVCAR-5): 0.435 µM (active)
- GI50 (OVCAR-8): 0.428 µM (active)
- GI50 (RPMI-8226): 0.0364 µM (active)
- GI50 (SF-295): 0.00531 µM (active)
- GI50 (SF-539): 0.078 µM (active)
- GI50 (SK-OV-3): 0.139 µM (active)
- GI50 (SN12C): 0.377 µM (active)
- GI50 (SNB-75): 0.00543 µM (active)
- GI50 (SW-620): 0.201 µM (active)
- GI50 (UACC-257): 0.614 µM (active)
- GI50 (UO-31): 1.08 µM (active)

Structure (SMILES): CCOC(=O)c1ccc(N[C@@H]2c3cc4c(cc3C(c3cc(OC)c(O)c(OC)c3)[C@H]3C(=O)OCC32)OCO4)cc1O (stereo partly specified)
- GI50 (DLD-1): 1.44 µM (inactive)
- GI50 (HCC 2998): 1.92 µM (inactive)
- GI50 (HCT-116): 0.505 µM (active)
- GI50 (LOX IMVI): 0.185 µM (active)
- GI50 (NCI-H23): 0.9 µM (active)
- GI50 (NCI-H460): < 0.01 µM (active)
- GI50 (NCI-H522): 0.665 µM (active)
- GI50 (OVCAR-3): 2.43 µM (inactive)
- GI50 (OVCAR-5): 1.06 µM (active)
- GI50 (OVCAR-8): 1.77 µM (inactive)
- GI50 (RPMI-8226): 0.94 µM (active)
- GI50 (SF-295): 0.498 µM (active)
- GI50 (SF-539): 0.685 µM (active)
- GI50 (SK-MEL-28): 1.22 µM (inactive)
- GI50 (SK-OV-3): 0.738 µM (active)
- GI50 (SN12C): 1.64 µM (inactive)
- GI50 (SNB-75): 0.548 µM (active)
- GI50 (SW-620): 0.942 µM (active)
- GI50 (UACC-257): 2.91 µM (inactive)
- GI50 (UO-31): 0.34 µM (active)

Structure (SMILES): Nc1ncnc2c1ncn2[C@@H]1O[C@H](COP(=O)(O)O)[C@@H](O)[C@@H]1O
- GI50 (DLD-1): > 31.6 µM (inactive)
- GI50 (HCC 2998): > 50 µM (inactive)
- GI50 (HCT-116): > 50 µM (inactive)
- GI50 (LOX IMVI): > 50 µM (inactive)
- GI50 (NCI-H23): > 50 µM (inactive)
- GI50 (NCI-H460): > 50 µM (inactive)
- GI50 (NCI-H522): > 50 µM (inactive)
- GI50 (OVCAR-3): > 50 µM (inactive)
- GI50 (OVCAR-5): > 40.7 µM (inactive)
- GI50 (OVCAR-8): 12.9 µM (inactive)
- GI50 (RPMI-8226): > 50 µM (inactive)
- GI50 (SF-295): > 50 µM (inactive)
- GI50 (SF-539): > 50 µM (inactive)
- GI50 (SK-MEL-28): > 50 µM (inactive)
- GI50 (SK-OV-3): > 50 µM (inactive)
- GI50 (SN12C): > 50 µM (inactive)
- GI50 (SNB-75): > 50 µM (inactive)
- GI50 (SW-620): > 50 µM (inactive)
- GI50 (UACC-257): > 50 µM (inactive)
- GI50 (UO-31): > 50 µM (inactive)
